Source: paper PMC6211316, “Synthesis and biological evaluation of 3-arylcoumarin derivatives as potential anti-diabetic agents” (Journal of Enzyme Inhibition and Medicinal Chemistry, 2018)
Read-outs that look alike come from different tables or passages of the source. Blank lines part the entries; values can stand above or below the molecule they belong to.

Assays:
[1] = hydroxyl radical scavenging; conditions: mean ± SD (n = 3), read-out: OH IC50 Value
Protocol: The ability of the target compounds and vitamin C to scavenge the hydroxyl radical was evaluated with method described by Ismaili et al.[29] with slight modifications. In test tube, 1.0 ml H2O2 solution (0.03%), 1.0 ml FeSO4 solution (2 mmol.L^−1), 1.0 ml salicylic acid solution (10 mmol.L^−1) and 1.0 ml of 3-arylcoumarins and standard water solution with different concentration (0.4–2.0 mg/mL) were mixed. Finally, 1.0 ml H2O2 solution (0.03%) was added to this mixture to start the reaction. Solutions were kept at 37 °C. After 30 min, the absorbance was measured at 510 nm against the reagent blank, where the distilled water was substituted for the H2O2 solution. The percentage of OH scavenging by target compounds and vitamin C was calculated the following equation: OH scavenging effect (%)=[A0−(A1−A2)]/A0×100% where A0 is the absorbance of 1.0 ml distilled water +1.0 ml H2O2 + 1.0 ml FeSO4 + 1.0 ml salicylic acid +1.0 ml H2O2; A1 is the absorbance of 1.0 ml 3-arylcoumarins or standard +1.0 ml H2O2 + 1.0 ml FeSO4 + 1.0 ml salicylic acid +1.0 ml H2O2; A2 is the absorbance of 1.0 ml 3-arylcoumarins or standard +1.0 ml H2O2 + 1.0 ml FeSO4 + 1.0 ml absolute absolute ethanol +1.0 ml H2O2.

α-Glucosidase = biological target: T1, α-Glucosidase (Saccharomyces cerevisiae, UniProt P53341); experiment: biochemical; assay type: biochemical; conditions: for α-glucosidase inhibitory activity (in words): in vitro
T1 construct: purchased Sigma Aldrich G0660-750UN
T1 sequence (P53341 whole entry): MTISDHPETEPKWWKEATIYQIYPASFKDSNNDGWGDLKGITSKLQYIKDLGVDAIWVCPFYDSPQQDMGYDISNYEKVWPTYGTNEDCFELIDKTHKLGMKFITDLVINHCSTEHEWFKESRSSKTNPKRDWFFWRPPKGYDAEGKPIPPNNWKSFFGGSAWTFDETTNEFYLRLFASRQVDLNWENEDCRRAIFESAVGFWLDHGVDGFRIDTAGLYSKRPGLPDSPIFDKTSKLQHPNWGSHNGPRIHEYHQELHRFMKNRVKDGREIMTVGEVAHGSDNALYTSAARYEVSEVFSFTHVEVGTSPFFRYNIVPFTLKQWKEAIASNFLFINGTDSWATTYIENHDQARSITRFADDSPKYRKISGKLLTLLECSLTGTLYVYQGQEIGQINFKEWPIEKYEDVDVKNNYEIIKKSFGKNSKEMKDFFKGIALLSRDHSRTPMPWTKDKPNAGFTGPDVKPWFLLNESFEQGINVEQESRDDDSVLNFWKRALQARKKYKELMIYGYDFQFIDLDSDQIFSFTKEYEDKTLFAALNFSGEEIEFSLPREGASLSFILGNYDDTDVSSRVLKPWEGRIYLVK
Protocol: α-Glucosidase (G0660-750UN, Sigma Aldrich) and 4-Nitrophenyl α-D-glucopyranoside (PNPG, Macklin) were dissolved in phosphate buffer (pH 6.8, 100 mM), and the test compounds were dissolved in DMSO solution. The experiment was divided into blank group, control group, sample blank group, and sample group. The reagents were loaded in 96-well plates at the dose of the table (Table 8). The solution was bathed in 37 °C water for 10 min, and then enzyme solution was added. After reaction at 37 °C for 20 min, 70 μL Na2CO3 solution ([…]) was added to stop the reaction. All experiments were run in triplicate. […] Since PNPG can produce glucose and p-Nitrophenol (PNP) under the action of α-glucosidase, PNP has the greatest absorption at 405 nm. The absorbance was determined by the microplate reader, and the inhibition rate of α-glucosidase and the IC50 value of each sample were calculated according to the formula. Inhibition rate %={[(AC−AB)−(AS−ASB)]/(AC−AB)}×100% where AC is the absorbance of control group; AB is the absorbance of blank group; AS is the absorbance of sample group; ASB is the absorbance of sample blank group.

[2] = DPPH free radical scavenging; conditions: mean ± SD (n = 3)
Protocol: The effect of target compounds and vitamin C to scavenge the DPPH free radical was evaluated with the method described by Villano et al.[43] with slight modifications.
Two millilitres of different concentrations of the sample solution was added to 2.0 ml of DPPH solution (0.04 mg/mL), shaken and allowed to react at room temperature for 30 min. The absorbance value was measured at 517 nm with an ultraviolet-visible spectrophotometer. The blank reference cuvette contained absolute ethanol. All measurements were performed in triplicate. IC50 values were calculated. The percentage of DPPH radical scavenging rate of the target compound is calculated as follows: DPPH free radical scavenging effect (%)=[A0−(A1−A2)]/A0×100% where A0 is the absorbance of 2.0 ml DPPH solution +2.0 ml absolute ethanol; A1 is the absorbance of 2.0 ml DPPH solution +2.0 ml 3-arylcoumarins solution or standard; A2 is the absorbance of 2.0 ml 3-arylcoumarins solution or standard +2.0 ml absolute ethanol.

AGEs formation = experiment: In vitro inhibitory activity of AGEs formation (bovine serum albumin/glucose); assay type: biochemical; conditions: mean ± SD (n = 3)
Protocol: To prepare the AGEs reaction solution, 10 mg/mL of bovine serum albumin in 50 mM PBS (pH 7.4) was added to 0.2 M glucose, and 0.02% sodium azide was added to prevent bacterial growth. The reaction mixture (3.0 ml) was then mixed with various concentrations (0.5–1000 μg/mL) of the target compounds (1.0 ml) dissolved in DMSO. After incubating at 37 °C for 14 d, the fluorescence intensity of AGE was determined by a fluorospectrophotometer (PE, USA) with excitation and emission wavelengths at 350 nm and 420 nm, respectively. All experiments were run in triplicate. Aminoguanidine hydrochloride was used as a reference compound. The inhibition rate of AGEs formation and the IC50 value of each sample were calculated according to the formula. Inhibition rate %={[(AC−AB)−(AS−ASB)]/(AC−AB)}×100% where AC is the absorbance of control group(1.0 ml glucose +1.0 ml bovine serum albumin +1.0 ml sodium azide +1.0 ml DMSO); AB is the absorbance of blank group(1.0 ml PBS +1.0 ml bovine serum albumin +1.0 ml sodium azide +1.0 ml DMSO); AS is the absorbance of sample group (1.0 ml glucose +1.0 ml bovine serum albumin +1.0 ml sodium azide +1.0 ml target compound solution or Aminoguanidine hydrochloride solution); ASB is the absorbance of sample blank group (1.0 ml PBS +1.0 ml bovine serum albumin +1.0 ml sodium azide +1.0 ml target compound solution or Aminoguanidine hydrochloride solution).

melting point: 287.5 to 288.9 °C | IC50 [1]: 697 ± 19.6 µM | IC50 (α-Glucosidase; mean ± SD (n = 3), read-out: α-Glucosidase inhibitory activity IC50 Value): 19 ± 1.11 µM | IC50 [2]: 2.18 ± 0.04 µM | IC50 (AGEs formation): > 1000 µM
Structure (SMILES): O=c1oc2c(O)c(O)ccc2cc1-c1ccc(O)cc1 [Compound 30, 7,8-Dihydroxy-3-(4-hydroxyphenyl)-coumarin]

Structure (SMILES): COc1ccc(-c2cc3cccc(O)c3oc2=O)cc1OC [Compound 38, 8-Hydroxy-3-(3,4-dimethoxyphenyl)-coumarin]
melting point: 162.8 to 163.8 °C | IC50 [1]: > 1000 µM | IC50 (α-Glucosidase): 20.2 ± 0.44 µM | IC50 [2]: 16.3 ± 0.44 µM | IC50 (AGEs formation): 22.3 ± 1.34 µM

Structure (SMILES): O=c1oc2ccccc2cc1-c1ccc(F)cc1 [Compound 7, 3-(4-Fluorophenyl)-coumarin]
melting point: 196.7 to 197.7 °C | IC50 [1]: > 1000 µM | IC50 (α-Glucosidase): > 1000 µM | IC50 [2]: > 1000 µM | IC50 (AGEs formation): > 1000 µM

Structure (SMILES): O=c1oc2cc(O)ccc2cc1-c1ccc(O)c(O)c1 [Compound 29, 7-Hydroxy-3-(3,4-dihydroxyphenyl)-coumarin]
melting point: 306 to 307.8 °C | IC50 [1]: 982 ± 30 µM | IC50 (α-Glucosidase): 29.9 ± 5.15 µM | IC50 [2]: 11.85 ± 0.04 µM | IC50 (AGEs formation): 7.48 ± 0.59 µM

Structure (SMILES): O=c1oc2c(O)c(O)ccc2cc1-c1ccc(F)cc1 [Compound 32, 7,8-Dihydroxy-3-(4-fluorophenyl)-coumarin]
melting point: 259.8 to 260.7 °C | IC50 [1]: 970 ± 70.9 µM | IC50 (α-Glucosidase): > 1000 µM | IC50 [2]: 2.06 ± 0.07 µM | IC50 (AGEs formation): 33.5 ± 1.99 µM

Structure (SMILES): Cc1ccc(C)c(-c2cc3cccc(O)c3oc2=O)c1 [Compound 21, 8-Hydroxy-3-(2,5-dimethylphenyl)-coumarin]
melting point: 183.2 to 187.4 °C | IC50 [1]: > 1000 µM | IC50 (α-Glucosidase): > 1000 µM | IC50 [2]: > 1000 µM | IC50 (AGEs formation): 213 ± 4.77 µM

Structure (SMILES): COc1ccc2oc(=O)c(-c3ccc(O)cc3)cc2c1 [Compound 27, 6-Methoxy-3-(4-hydroxyphenyl)-coumarin]
melting point: 195.6 to 197.2 °C | IC50 [1]: > 1000 µM | IC50 (α-Glucosidase): 70.3 ± 2.95 µM | IC50 [2]: 42 ± 0.97 µM | IC50 (AGEs formation): 64.5 ± 0.78 µM

Structure (SMILES): Cc1ccccc1-c1cc2cccc(O)c2oc1=O [Compound 10, 8-Hydroxy-3-(2-methylphenyl)-coumarin]
melting point: 212.7 to 213 °C | IC50 [1]: > 1000 µM | IC50 (α-Glucosidase): > 1000 µM | IC50 [2]: > 1000 µM | IC50 (AGEs formation): > 1000 µM

Structure (SMILES): Cc1ccc(C)c(-c2cc3ccc(O)cc3oc2=O)c1 [Compound 20, 7-Hydroxy-3-(2,5-dimethylphenyl)-coumarin]
melting point: 189.1 to 190.6 °C | IC50 [1]: > 1000 µM | IC50 (α-Glucosidase): > 1000 µM | IC50 [2]: > 1000 µM | IC50 (AGEs formation): > 1000 µM

Structure (SMILES): O=c1oc2c(O)cccc2cc1-c1ccc(F)cc1 [Compound 19, 8-Hydroxy-3-(4-fluorophenyl)-coumarin]
melting point: 201.3 to 203.1 °C | IC50 [1]: > 1000 µM | IC50 (α-Glucosidase): > 1000 µM | IC50 [2]: 39.1 ± 3.83 µM | IC50 (AGEs formation): 34.7 ± 1.84 µM

Structure (SMILES): COc1ccc(-c2cc3cc(O)ccc3oc2=O)cc1OC [Compound 39, 6-Hydroxy-3-(3,4-dimethoxyphenyl)-coumarin]
melting point: 216.1 to 217.9 °C | IC50 [1]: > 1000 µM | IC50 (α-Glucosidase): 13.1 ± 0.57 µM | α-glucosidase inhibitory activity (in words) (α-Glucosidase): moderate to excellent inhibitory activity | IC50 [2]: > 1000 µM | IC50 (AGEs formation): 8.02 ± 0.2 µM

Structure (SMILES): COc1ccc(-c2cc3c(O)cc(O)cc3oc2=O)cc1OC [Compound 42, 5,7-Dihydroxy-3-(3,4-dimethoxyphenyl)-coumarin]
melting point: 322 to 324.1 °C | IC50 [1]: > 1000 µM | IC50 (α-Glucosidase): 39.1 ± 0.76 µM | IC50 [2]: 5.89 ± 0.06 µM | IC50 (AGEs formation): 18.3 ± 0.38 µM

Structure (SMILES): Cc1ccc(-c2cc3ccc(O)c(O)c3oc2=O)cc1 [Compound 23, 7,8-Dihydroxy-3-(4-methylphenyl)-coumarin]
melting point: 226.8 to 227.5 °C | IC50 [1]: 801 ± 41.8 µM | IC50 (α-Glucosidase): 25.5 ± 0.52 µM | IC50 [2]: 3.21 ± 0.04 µM | IC50 (AGEs formation): 75.9 ± 10.7 µM

Structure (SMILES): COc1ccc2cc(-c3ccc(O)cc3)c(=O)oc2c1 [Compound 26, 7-Methoxy-3-(4-hydroxyphenyl)-coumarin]
melting point: 209 to 209.8 °C | IC50 [1]: > 1000 µM | IC50 (α-Glucosidase): > 1000 µM | IC50 [2]: 68.7 ± 13.4 µM | IC50 (AGEs formation): 65.9 ± 1.34 µM

Structure (SMILES): Cc1ccc(-c2cc3cccc(O)c3oc2=O)cc1 [Compound 8, 8-Hydroxy-3-(4-methylphenyl)-coumarin]
melting point: 211.7 to 212.5 °C | IC50 [1]: > 1000 µM | IC50 (α-Glucosidase): 69.6 ± 5.32 µM | IC50 [2]: > 1000 µM | IC50 (AGEs formation): 31.9 ± 2.02 µM

Structure (SMILES): O=c1oc2cc(O)ccc2cc1-c1ccccc1O [Compound 16, 7-Hydroxy-3-(2-hydroxyphenyl)-coumarin]
melting point: 200.3 to 202.3 °C | IC50 [1]: > 1000 µM | IC50 (α-Glucosidase): 10.2 ± 0.75 µM | α-glucosidase inhibitory activity (in words) (α-Glucosidase): moderate to excellent inhibitory activity | IC50 [2]: > 1000 µM | IC50 (AGEs formation): 20.47 ± 0.2 µM

Structure (SMILES): COc1ccc(-c2cc3ccc(O)c(O)c3oc2=O)cc1 [Compound 34, 7,8-Dihydroxy-3-(4-methoxyphenyl)-coumarin]
melting point: 234.4 to 235.4 °C | IC50 [1]: > 1000 µM | IC50 (α-Glucosidase): 18.8 ± 1.02 µM | IC50 [2]: 3.66 ± 0.03 µM | IC50 (AGEs formation): > 1000 µM

Structure (SMILES): CCN(CC)c1ccc2cc(-c3ccc(O)cc3)c(=O)oc2c1 [Compound 41, 7-Diethylamino-3-(4-hydroxyphenyl)-coumarin]
melting point: 190.2 to 191.8 °C | IC50 [1]: > 1000 µM | IC50 (α-Glucosidase): 13.4 ± 0.65 µM | IC50 [2]: > 1000 µM | IC50 (AGEs formation): > 1000 µM
